According to ChEMBL document CHEMBL5036301, “Heteroaryl ether analogues of an antileishmanial 7-substituted 2-nitroimidazooxazine lead afford attenuated hERG risk: In vitro and in vivo appraisal” (Eur J Med Chem, 2021):
In brackets after ≈: the same amount, converted by molar mass.

Assays:
Leishmania donovani [1] = assay: Antileishmanial activity against Leishmania donovani amastigotes infected in mouse J774A.1 cells incubated for 72 hrs by luciferase assay; assay type: functional, organism-based; details: J774.A1, 72 h
Leishmania infantum [2] = assay: Antileishmanial activity against Leishmania infantum MHOM/MA(BE)/67 amastigotes infected in macrophages assessed as reduction in parasite burden by giemsa staining based microscopic analysis; assay type: functional, organism-based
Trypanosoma cruzi = assay: Antitrypanosomal activity against Trypanosoma cruzi Tulahuen CL2 infected in human MRC-5 cells assessed as parasite growth; assay type: functional, organism-based; details: Tulahuen CL2, MRC5
MRC5 = assay: Cytotoxicity against human MRC5 cells assessed as cell viability after 72 hrs by fluorimetric analysis; assay type: ADME, cell-based; details: MRC5, 72 h
[3] = Kinetic solubility of compound in water at pH7 by HPLC analysis; details: pH 7
[4] = Stability of compound in human liver microsomes assessed as percentage of parent compound remaining at 0.5 uM measured after 30 mins; assay type: ADME, Microsome; details: read-out: Stability
[5] = Stability of compound in CD-1 mouse liver microsomes assessed as percentage of parent compound remaining at 0.5 uM measured after 30 mins; assay type: ADME, Microsome; details: read-out: Stability
[6] = Stability of compound in hamster liver microsomes assessed as percentage of parent compound remaining at 0.5 uM measured after 30 mins; assay type: ADME, Cricetulus griseus, Microsome; details: chinese hamster, read-out: Stability
hERG (KCNH2) = hERG (KCNH2) (Homo sapiens, UniProt Q12809); assay: Inhibition of human ERG expressed in HEK293 cells at 10 uM relative to control; assay type: cell-based; details: HEK293 cells expressing human ERG
[7] = Initial plasma concentration in mouse at 1 mg/kg, iv measured upto 24 hrs LC-MS/MS analysis
[8] = Clearance in mouse at 1 mg/kg, iv measured upto 24 hrs LC-MS/MS analysis; details: in vivo
[9] = Volume of distribution at steady state in mouse at 1 mg/kg, iv measured upto 24 hrs LC-MS/MS analysis; details: in vivo
[10] = Half life in mouse at 1 mg/kg, iv measured upto 24 hrs LC-MS/MS analysis; details: in vivo
[11] = AUClast in mouse at 1 mg/kg, iv measured upto 24 hrs LC-MS/MS analysis; details: in vivo
[12] = AUClast in mouse at 25 mg/kg, po measured upto 24 hrs LC-MS/MS analysis; details: in vivo
in vivo [13] = details: mouse, po, 25 mg/kg
in vivo [14] = details: mouse, po, 25 mg/kg; remark: listed apart in the source
in vivo [15] = details: mouse, po, 25 mg/kg; remark: listed apart in the source
Leishmania donovani [16] = assay: Antileishmanial activity against Leishmania donovani amastigotes infected in BALB/C mouse assessed as reduction in parasite burden in liver tissue at 25 mg/kg, po administered once per day for 5 days relative to control; details: 120 h, read-out: INH
Leishmania donovani [17] = assay: Antileishmanial activity against Leishmania donovani amastigotes infected in BALB/C mouse assessed as reduction in parasite burden in liver tissue at 3.13 mg/kg, po administered once per day for 5 days relative to control; assay type: functional; details: 120 h, time 5 day
Leishmania infantum [18] = assay: Antileishmanial activity against Leishmania infantum amastigotes infected in golden hamster assessed as reduction in parasite load in liver tissue at 50 mg/kg, po administered once daily for 5 days relative to control; assay type: functional; details: 120 h, time 5 day
Leishmania infantum [19] = assay: Antileishmanial activity against Leishmania infantum amastigotes infected in golden hamster assessed as reduction in parasite load in spleen tissue at 50 mg/kg, po administered once daily for 5 days relative to control; assay type: functional; details: 120 h, time 5 day
Leishmania infantum [20] = assay: Antileishmanial activity against Leishmania infantum amastigotes infected in golden hamster assessed as reduction in parasite load in bone marrow tissue at 50 mg/kg, po administered once daily for 5 days relative to control; assay type: functional; details: 120 h, time 5 day
Leishmania infantum [21] = assay: Antileishmanial activity against Leishmania infantum amastigotes infected in golden hamster assessed as reduction in parasite load in liver tissue at 25 mg/kg, po administered once daily for 5 days relative to control; details: in Mesocricetus auratus, 120 h, read-out: INH
Leishmania infantum [22] = assay: Antileishmanial activity against Leishmania infantum amastigotes infected in golden hamster assessed as reduction in parasite load in bone marrow tissue at 25 mg/kg, po administered once daily for 5 days relative to control; details: in Mesocricetus auratus, 120 h, read-out: INH
Leishmania infantum [23] = assay: animal or person; details: in Mesocricetus auratus, po, 120 h, read-out: INH
Description: Antileishmanial activity against Leishmania infantum amastigotes infected in golden hamster assessed as reduction in parasite load in liver tissue at 12.5 mg/kg, po administered once daily for 5 days relative to control

Leishmania infantum [24] = assay: animal or person; details: in Mesocricetus auratus, po, 120 h, read-out: INH; remark: listed apart in the source
Description: Antileishmanial activity against Leishmania infantum amastigotes infected in golden hamster assessed as reduction in parasite load in spleen tissue at 12.5 mg/kg, po administered once daily for 5 days relative to control

Leishmania infantum [25] = assay: animal or person; details: in Mesocricetus auratus, po, 120 h, read-out: INH; remark: listed apart in the source
Description: Antileishmanial activity against Leishmania infantum amastigotes infected in golden hamster assessed as reduction in parasite load in bone marrow tissue at 12.5 mg/kg, po administered once daily for 5 days relative to control

Leishmania donovani [26] = assay: Antileishmanial activity against Leishmania donovani amastigotes infected in BALB/C mouse assessed as reduction in parasite burden in liver tissue at 6.25 mg/kg, po administered once per day for 5 days relative to control; assay type: functional; details: 120 h, time 5 day
Leishmania infantum [27] = assay: Antileishmanial activity against Leishmania infantum amastigotes infected in golden hamster assessed as reduction in parasite load in spleen tissue at 25 mg/kg, po administered once daily for 5 days relative to control; details: in Mesocricetus auratus, 120 h, read-out: INH
[28] = system: Mycobacterium tuberculosis; assay: Antitubercular activity against Mycobacterium tuberculosis H37Rv assessed as reduction in microbial growth under aerobic condition by luminescence analysis; assay type: functional
[29] = system: Mycobacterium tuberculosis; assay: Antitubercular activity against Mycobacterium tuberculosis H37Rv assessed as reduction in microbial growth under anaerobic condition by luminescence analysis; assay type: functional
Leishmania donovani [30] = assay: Antileishmanial activity against Leishmania donovani amastigotes infected in BALB/C mouse assessed as reduction in parasite burden in liver tissue at 50 mg/kg, po administered once per day for 5 days relative to control; assay type: functional; details: 120 h, time 5 day
[31] = Half life in mouse at 25 mg/kg, po measured upto 24 hrs LC-MS/MS analysis; details: in vivo
[32] = Half life in hamster at 41 to 51 mg/kg, po measured upto 24 hrs LC-MS/MS analysis; details: chinese hamster, in vivo
[33] = AUClast in hamster at 41 to 51 mg/kg, po measured upto 24 hrs LC-MS/MS analysis; details: chinese hamster, in vivo
in vivo [34] = details: chinese hamster, po
in vivo [35] = details: chinese hamster, po; remark: listed apart in the source
[36] = Kinetic solubility of compound in 0.1 M Hcl at pH1 by HPLC analysis; assay type: physicochemical; details: pH 1, read-out: Kinetic_solubility
[37] = mouse, in vivo, po, 25 mg/kg, 24 h
Leishmania infantum [38] = assay: Antileishmanial activity against Leishmania infantum amastigotes infected in golden hamster assessed as reduction in parasite load in liver tissue at 40 mg/kg, po administered once daily for 5 days relative to control; assay type: functional; details: 120 h, time 5 day
Leishmania infantum [39] = assay: Antileishmanial activity against Leishmania infantum amastigotes infected in golden hamster assessed as reduction in parasite load in spleen tissue at 40 mg/kg, po administered once daily for 5 days relative to control; assay type: functional; details: 120 h, time 5 day
Leishmania infantum [40] = assay: Antileishmanial activity against Leishmania infantum amastigotes infected in golden hamster assessed as reduction in parasite load in bone marrow tissue at 40 mg/kg, po administered once daily for 5 days relative to control; assay type: functional; details: 120 h, time 5 day

Sequence of hERG (KCNH2) (Q12809 whole entry): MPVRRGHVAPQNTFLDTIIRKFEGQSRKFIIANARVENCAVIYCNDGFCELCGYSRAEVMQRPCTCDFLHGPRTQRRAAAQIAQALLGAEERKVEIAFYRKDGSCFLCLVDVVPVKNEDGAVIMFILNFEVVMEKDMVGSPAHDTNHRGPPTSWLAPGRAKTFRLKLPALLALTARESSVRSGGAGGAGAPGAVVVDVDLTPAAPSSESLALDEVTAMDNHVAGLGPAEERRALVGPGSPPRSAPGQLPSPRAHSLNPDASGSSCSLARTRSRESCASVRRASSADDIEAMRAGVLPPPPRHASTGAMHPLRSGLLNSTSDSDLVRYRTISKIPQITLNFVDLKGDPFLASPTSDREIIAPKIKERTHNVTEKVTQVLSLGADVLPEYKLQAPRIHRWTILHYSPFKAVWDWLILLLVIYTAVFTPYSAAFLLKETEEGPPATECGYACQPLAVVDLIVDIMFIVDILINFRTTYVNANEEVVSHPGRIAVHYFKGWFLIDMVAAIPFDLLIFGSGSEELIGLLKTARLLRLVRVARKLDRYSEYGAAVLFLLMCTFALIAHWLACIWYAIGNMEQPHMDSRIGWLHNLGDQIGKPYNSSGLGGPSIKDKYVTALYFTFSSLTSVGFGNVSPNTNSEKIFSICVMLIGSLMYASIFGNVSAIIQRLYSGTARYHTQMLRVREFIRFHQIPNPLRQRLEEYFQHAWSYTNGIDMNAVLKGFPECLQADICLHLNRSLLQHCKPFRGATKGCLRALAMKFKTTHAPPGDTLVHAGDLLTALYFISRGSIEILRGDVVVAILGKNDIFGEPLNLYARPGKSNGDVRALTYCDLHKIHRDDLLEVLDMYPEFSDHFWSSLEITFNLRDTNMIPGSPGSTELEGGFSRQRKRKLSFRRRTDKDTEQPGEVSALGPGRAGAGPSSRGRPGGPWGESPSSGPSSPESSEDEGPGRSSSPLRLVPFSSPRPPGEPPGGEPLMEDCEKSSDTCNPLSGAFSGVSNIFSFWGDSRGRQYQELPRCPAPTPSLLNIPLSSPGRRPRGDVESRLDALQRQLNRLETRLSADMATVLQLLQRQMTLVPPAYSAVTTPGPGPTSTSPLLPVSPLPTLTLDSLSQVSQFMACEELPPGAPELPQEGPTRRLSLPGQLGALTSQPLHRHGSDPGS

O=[N+]([O-])c1cn2c(n1)OC(COc1ncc(Cl)cn1)CC2 (stereo unspecified)
IC50 (Leishmania donovani [1]): 0.12 µM
IC50 (Leishmania infantum [2]): > 64 µM
IC50 (Trypanosoma cruzi): 39 µM
IC50 (MRC5): > 64 µM
solubility kinetic [3]: 0.0066 mg/mL (≈ 21.2 µM)
remaining at 0.5 h, 0.5 µM [4]: 99%
remaining at 0.5 h, 0.5 µM [5]: 100%
remaining at 0.5 h, 0.5 µM [6]: 90%
inhibition at 10 µM (hERG (KCNH2)): 12%
C0 at 24 h [7]: 1.9 µg/mL
clearance at 24 h [8]: 0.438 L/h/kg
Vd at 24 h [9]: 0.37 L/kg
AUC at 24 h [10]: 0.58 µg·h/mL
AUC(0-t) at 24 h [11]: 2.07 µg·h/mL
AUC(0-t) at 24 h [12]: 3.83 µg·h/mL
Cmax at 24 h (in vivo [13]): 0.76 µg/mL
Tmax at 24 h (in vivo [14]): 2 h
bioavailability at 24 h (in vivo [15]): 15%

C[C@]1(COc2ccc(OC(F)(F)F)cc2)CCn2cc([N+](=O)[O-])nc2O1
IC50 (Leishmania donovani [1]): 0.06 µM
inhibition in vivo at 25 mg/kg (Leishmania donovani [16]): > 99%
inhibition in vivo at 3.13 mg/kg (Leishmania donovani [17]): 51%
inhibition in vivo at 50 mg/kg (Leishmania infantum [18]): 99.6%
inhibition in vivo at 50 mg/kg (Leishmania infantum [19]): 98%
inhibition in vivo at 50 mg/kg (Leishmania infantum [20]): 96.7%
inhibition in vivo at 25 mg/kg (Leishmania infantum [21]): 93.6%
inhibition in vivo at 25 mg/kg (Leishmania infantum [22]): 81.5%
inhibition in vivo at 12.5 mg/kg (Leishmania infantum [23]): 67.8%
inhibition in vivo at 12.5 mg/kg (Leishmania infantum [24]): 59.5%
inhibition in vivo at 12.5 mg/kg (Leishmania infantum [25]): 42.5%

C[C@@]1(COc2ccc(OC(F)(F)F)cc2)CCn2cc([N+](=O)[O-])nc2O1
IC50 (Leishmania donovani [1]): 0.37 µM
inhibition in vivo at 25 mg/kg (Leishmania donovani [16]): 66%
inhibition in vivo at 6.25 mg/kg (Leishmania donovani [26]): 49%
inhibition in vivo at 3.13 mg/kg (Leishmania donovani [17]): 18%
inhibition in vivo at 50 mg/kg (Leishmania infantum [18]): 100%
inhibition in vivo at 50 mg/kg (Leishmania infantum [19]): 99.9%
inhibition in vivo at 50 mg/kg (Leishmania infantum [20]): 99.7%
inhibition in vivo at 25 mg/kg (Leishmania infantum [21]): 97.2%
inhibition in vivo at 25 mg/kg (Leishmania infantum [27]): 92.3%
inhibition in vivo at 12.5 mg/kg (Leishmania infantum [23]): 47.3%
inhibition in vivo at 12.5 mg/kg (Leishmania infantum [24]): 44.4%
inhibition in vivo at 12.5 mg/kg (Leishmania infantum [25]): 0%

C[C@]1(COc2ccc(C(F)(F)F)cn2)CCn2cc([N+](=O)[O-])nc2O1
IC50 (Leishmania infantum [2]): 0.29 µM
IC50 (Trypanosoma cruzi): 0.34 µM
IC50 (MRC5): > 64 µM
MIC [28]: 0.16 µM
MIC [29]: 3.8 µM
solubility kinetic [3]: 0.026 mg/mL (≈ 72.6 µM)
inhibition in vivo at 50 mg/kg (Leishmania donovani [30]): 84%
inhibition in vivo at 50 mg/kg (Leishmania infantum [18]): 51.8%
inhibition in vivo at 50 mg/kg (Leishmania infantum [19]): 47.1%
inhibition in vivo at 50 mg/kg (Leishmania infantum [20]): 54%
half-life at 24 h [31]: 1.5 h
AUC(0-t) at 24 h [12]: 39.6 µg·h/mL
half-life at 24 h [32]: 0.72 h
AUC(0-t) at 24 h [33]: 0.072 µg·h/mL
Cmax at 24 h (in vivo [13]): 9.5 µg/mL
Tmax at 24 h (in vivo [14]): 3.7 h
Cmax at 24 h (in vivo [34]): 0.045 µg/mL
Tmax at 24 h (in vivo [35]): 0.75 h

CC1(COc2ccc(C(F)(F)F)cn2)CCn2cc([N+](=O)[O-])nc2O1 (stereo unspecified)
IC50 (Leishmania donovani [1]): 0.21 µM
IC50 (Leishmania infantum [2]): 0.27 µM
IC50 (Trypanosoma cruzi): 0.29 µM
IC50 (MRC5): > 64 µM
MIC [28]: 0.6 µM
MIC [29]: 8.9 µM
solubility kinetic [3]: 0.019 mg/mL (≈ 53 µM)
solubility kinetic [36]: 0.012 mg/mL (≈ 33.5 µM)
inhibition at 10 µM (hERG (KCNH2)): 18%
inhibition in vivo at 50 mg/kg (Leishmania donovani [30]): 96%
C0 at 24 h [7]: 0.81 µg/mL
clearance at 24 h [8]: 1.86 L/h/kg
Vd at 24 h [9]: 1.3 L/kg
half-life at 24 h [10]: 0.85 h
AUClast ([11]; 24 h): 0.544 µg·h/mL
AUClast ([12]; 24 h): 57.1 µg·h/mL
F [37]: 100%
Cmax at 24 h (in vivo [13]): 15 µg/mL
Tmax at 24 h (in vivo [14]): 0.5 h

C[C@@]1(COc2ccc(C(F)(F)F)cn2)CCn2cc([N+](=O)[O-])nc2O1
IC50 (Leishmania infantum [2]): 0.75 µM
IC50 (Trypanosoma cruzi): 0.98 µM
IC50 (MRC5): > 64 µM
solubility kinetic [3]: 0.021 mg/mL (≈ 58.6 µM)
inhibition in vivo at 50 mg/kg (Leishmania donovani [30]): 38%
inhibition in vivo at 50 mg/kg (Leishmania infantum [18]): 46.5%
inhibition in vivo at 50 mg/kg (Leishmania infantum [19]): 52.3%
inhibition in vivo at 50 mg/kg (Leishmania infantum [20]): 37.4%
half-life at 24 h [31]: 1.5 h
AUC(0-t) at 24 h [12]: 183 µg·h/mL
AUC(0-t) at 24 h [33]: 0.924 µg·h/mL
Cmax at 24 h (in vivo [13]): 33 µg/mL
Tmax at 24 h (in vivo [14]): 2 h
Cmax at 24 h (in vivo [34]): 0.31 µg/mL
Tmax at 24 h (in vivo [35]): 4.3 h

CCCCCCCCCCCCCCCCOP(=O)([O-])OCC[N+](C)(C)C [MILTEFOSINE]
inhibition in vivo at 40 mg/kg (Leishmania infantum [38]): 98.5%
inhibition in vivo at 40 mg/kg (Leishmania infantum [39]): 99.7%
inhibition in vivo at 40 mg/kg (Leishmania infantum [40]): 94.9%
